Data reported in US20240360101A1, “PHARMACEUTICAL SALTS OF A CHK-1 INHIBITOR” (SENTINEL ONCOLOGY LIMITED, priority 2021, published 2024).
pIC50: −log10 of the molar value. Blank lines part the entries; values can stand above or below the compound they belong to.

Key:
[1] = Gravimetric vapour sorption (GVS); type: physicochemical; settings: for GVS weight loss, initial desorption cycle: from 50% RH to 0% RH; for GVS weight loss, initial desorption cycle / GVS water gain, subsequent sorption cycle: 25° C.; for GVS water gain, subsequent sorption cycle: up to 90% RH
Description: Sorption isotherms were obtained using a Hiden Isochema moisture sorption analyser (model IGAsorp), controlled by IGAsorp Systems Software V6.50.48. The sample was maintained at a constant temperature (25° C.) by the instrument controls. The humidity was controlled by mixing streams of dry and wet nitrogen, with a total flow of 250 ml·min−. The instrument was verified for relative humidity (RH) content by measuring three calibrated Rotronic salt solutions (10-50-88%). The weight change of the sample was monitored as a function of humidity by a microbalance (accuracy+/−0.005 mg). A defined amount of sample was placed in a tared mesh stainless steel basket under ambient conditions. A full experimental cycle typically consisted of three scans (sorption, desorption and sorption) at a constant temperature (25° C.) and 10% RH intervals over a 0-90% range (60 minutes for each humidity level).

[2] = Solubility of the salts in biorelevant media; type: physicochemical; settings: 25° C., 24 h, HPLC; for solubility FaSSGF (pH 1.37): Fasted State Simulated Gastric Fluid; for solubility FaSSIF (pH 6.71): Fasted State Simulated Intestinal Fluid; for solubility FeSSIF (pH 5.14): Fed State Simulated Intestinal Fluid
Description: Biorelevant media (DI H2O, FeSSIF, FaSSIF and FaSSGF) (2 mL) was charged. Samples were left to equilibrate (25° C.) over 24 h. Solubility measurements were taken using HPLC (see Method 1 above).

MIA PaCa-2 cells = assay: Gemcitabine combination cell assay; type: cell-based
Description: Exponentially growing MIA PaCa-2 (ATCC CRL-1420) cells are treated with trypsin to remove cells from the plate surface. Approximately 10,000 cells/well are plated in 96 well plates in RPMI containing 10% fetal bovine serum, 1% sodium pyruvate and 1% L-GlutaMax. Cells are allowed to adhere to the plate surface overnight. Serial half-log dilutions of Chk1 inhibitor test compounds and gemcitabine are made with a final highest concentration of 3000 nM and 100 nM, respectively. Chk1 inhibitors and gemcitabine are combined so that each concentration of Chk1 inhibitor is added to each concentration of gemcitabine. Each drug is also tested as a single agent. Drugs are added to adherent cells (in duplicate) and incubated for 72h. At 72h the cells are treated with Promega Cell Titer Glo reagent for approximately 15 minutes. Luminescence (relative light units, RLU) is recorded using a BMG Polarstar Omega plate reader. The single agent concentration that results in a 50% reduction in total signal (IC50) is calculated using PRISM software and a four-parameter non-linear regression curve fit. For combination studies the RLUs are plotted using PRISM on an XY plot with the gemcitabine concentration on the X axis and RLU on the Y axis. The RLU for each concentration of Chk1 inhibitor is plotted as a function of gemcitabine concentration. The IC50 for gemcitabine alone and at each concentration of Chk1 is determined using a four-parameter non-linear regression curve fit. The approximate concentration of Chk1 inhibitor that results in a two and ten-fold reduction in the IC50 of gemcitabine alone is calculated as an indication of synergistic potency.

[3] = Two-week stability (HPLC purity); type: physicochemical
Description: HPLC analysis was carried out on an Agilent 1110/1200 series HPLC system. The column used was an Triart C18; 150×4.6 mm, 3.0 μm particle size (Ex Waters, PN: 186004644). The flow rate was 1.0 mL/min. Mobile phase A was Water:Trifluoroacetic acid (100:0.1%) and mobile phase B was Acetonitrile:Trifluoroacetic acid (100:0.1%). Detection was by UV at 302 nm. The injection volume was 5 μL, column temperature 40° C. and the following gradient was used: […]
Experimental: Maleate salt pattern B (30 mg) was placed into separate 15 mL type I glass vials. To these vials, a HDPE plastic cap was loosely attached to allow the ingress of moisture. The vials were then placed into ICH rated stability cabinets at 25° C./60% RH and 40° C./75% RH and in cold storage at 2-8° C. Following 2 weeks of storage these samples were removed from the stability cabinets and cold storage and the chemical purity assessed by HPLC (method 2). The relevant data was collected using a wavelength of 302 nm. The samples were prepared in MeCN:water (1:1).

[4] = Dynamic vapour sorption (DVS) analysis of maleate salt Pattern B; type: physicochemical
Description: A defined amount of the maleate salt Pattern B was placed in a tared mesh stainless steel basket under ambient conditions. A full experimental cycle consisted of […] (desorption, sorption repeat and desorption) at a constant temperature (25° C.) and 10% RH intervals over a 0-90% range (60 minutes for each humidity level).
Post cycle, the material was isolated at 0% RH and tested for crystallinity and then held at 90% RH for a minimum of 3 hours and re-tested for changes in crystallinity.

GVS weight loss, initial desorption cycle ([1]; listed as free base): 2 wt %
GVS water gain, subsequent sorption cycle ([1]; listed as free base): 8%
solubility FaSSGF (pH 1.37) ([2]; listed as free base): 2.93 mg/mL
solubility FaSSIF (pH 6.71) ([2]; listed as free base): 0.04 mg/mL
solubility FeSSIF (pH 5.14) ([2]; listed as free base): 0.6 mg/mL
pIC50 (MIA PaCa-2 cells; Homo sapiens, compound alone, MIA PaCa-2 cells, 72h, Cell Titer Glo, read-out: Chk1 IC50): 6.84
Aqueous solubility mg/mL 24 h: 0.39 mg/mL
SMILES: COc1cc(C2(F)CCN(C)CC2)ccc1-c1cc(Nc2cnc(C#N)cn2)n[nH]1 [compound of formula (1), 5-[[5-[4-(4-fluoro-1-methyl-4-piperidyl)-2-methoxy-phenyl]-1H-pyrazol-3-yl]amino]pyrazine-2-carbonitrile]
10 × LS (MIA PaCa-2 cells; approximate concentration giving a 10-fold reduction in the IC50 of gemcitabine alone, MIA PaCa-2, 72h): ~100 nM
2 × LS (MIA PaCa-2 cells; approximate concentration giving a two-fold reduction in the IC50 of gemcitabine alone, MIA PaCa-2, 72h): ~3 nM

GVS weight loss, initial desorption cycle [1]: 2.5 wt %
GVS water gain, subsequent sorption cycle [1]: 4%
solubility FaSSGF (pH 1.37) [2]: 3.97 mg/mL
solubility FaSSIF (pH 6.71) [2]: 0.07 mg/mL
solubility FeSSIF (pH 5.14) [2]: 0.57 mg/mL
HPLC purity (HPLC method 2) ([3]; T = 0): 96.85
HPLC purity (HPLC method 2) ([3]; T = 2 weeks, 2-8° C.): 96.85
HPLC purity (HPLC method 2) ([3]; T = 2 weeks, 25° C./60% RH): 96.99
HPLC purity (HPLC method 2) ([3]; T = 2 weeks, 40° C./75% RH): 96.98
stability on storage ([3]; two weeks at 25° C./60% RH, 40° C./75% RH and 2-8° C., result in words): stable
DVS moisture associated before the first desorption ([4]; 25° C., ambient start): ca. 2.8 wt %
DVS main increase in weight, first sorption ([4]; between 20 and 30% RH): ca. 2 wt %
Aqueous solubility mg/mL 24 h: 1.4 mg/mL
SMILES: COc1cc(C2(F)CCN(C)CC2)ccc1-c1cc(Nc2cnc(C#N)cn2)n[nH]1 [maleate pattern B, 5-[[5-[4-(4-fluoro-1-methyl-4-piperidyl)-2-methoxy-phenyl]-1H-pyrazol-3-yl]amino]pyrazine-2-carbonitrile]
crystalline form (XRPD) after GVS at extremes of humidity ([1]; 0% RH and 90% RH, result in words): 0% RH converts to pattern A, 90% RH no change
crystalline form (XRPD) after DVS ([4]; isolated at 0% RH, then held at 90% RH, result in words): mixed phase at 0% RH and pattern B at 90% RH
